Test results taken from patent US20250051263A1, “NOVEL IONIZABLE LIPIDS AND LIPID NANOPARTICLES AND METHODS OF USING THE SAME” (Sail Biomedicines, Inc., priority 2021, published 2025).

Assays:
Balb/c mice = assay: EPO levels in plasma by EPO MSD kit after IV injection of EPO mRNA LNP; format: in vivo
Experimental: 8-9 week old female Balb/c mice are utilized for bioluminescence-based ionizable lipid screening efforts. Mice are obtained from Jackson Laboratories (JAX Stock: 000651) and allowed to acclimate for one week prior to manipulations. Animals are placed under a heat lamp for a few minutes before introducing them to a restraining chamber. The tail is wiped with alcohol pads (Fisher Scientific) and 100 μL of a lipid nanoparticle composition descrbed above containing 10 ug total mRNA (5 ug Fluc+5 ug EPO) is injected intravenously using a 29 G insulin syringe (Covidien). Any resulting bleeding is stemmed using a sterile gauze pad (Fisher Scientific) and animals are placed back into their home cage. 4-6 hours post-dose, animals are injected with 200 μL of 15 mg/mL D-Luciferin (GoldBio) and placed in an isoflurane induction chamber set to deliver 2.5% isoflurane delivered at an oxygen flow rate of 1-2 liters per min. After 5 minutes of isoflurane exposure, mice are placed in set nose cones inside the IVIS Lumina LT imager (PerkinElmer). LivingImage software is utilized for imaging. Whole body bio-luminescence is captured at auto-exposure after which animals are removed from the IVIS and placed into a CO2 chamber for euthanasia. Cardiac puncture is performed on each animal after placing it in dorsal recumbency, and blood collection is performed using a 25 G insulin syringe (BD). Blood is collected in Lithium-Heparin coated tubes (Fisher Scientific) and immediately placed on ice. Once all blood samples are collected, tubes are spun at 2000 G for 10 minutes using a tabletop centrifuge and plasma is aliquoted into individual Eppendorf tubes (Fisher Scientific) and stored at −80 C for subsequent EPO quantification. EPO levels in plasma are determined using EPO MSD kit (Meso Scale Diagnostics).
8-9 week old female Balb/c mice were utilized for bioluminescence-based ionizable lipid screening efforts. Mice were obtained from Jackson Laboratories (JAX Stock: 000651) and allowed to acclimate for one week prior to manipulations. Animals were placed under a heat lamp for a few minutes before introducing them to a restraining chamber. The tail was wiped with alcohol pads (Fisher Scientific) and, for each LNP composition descrbed above, 100 μL of a lipid nanoparticle composition descrbed above containing 10 μg total mRNA (5 μg Fluc+5 μg EPO, 5 μg Fluc+5 μg Cre, or 5 μg EGFP) was injected intravenously using a 29 G insulin syringe (Covidien).
4-6 hours post-dose, animals were injected with 200 μL of 15 mg/mL D-Luciferin (GoldBio), and placed in set nose cones inside the IVIS Lumina LT imager (PerkinElmer). LivingImage software was utilized for imaging. Whole body bio-luminescence was captured at auto-exposure after which animals are removed from the IVIS and placed into a CO2 chamber for euthanasia. Cardiac puncture was performed on each animal after placing it in dorsal recumbency, and blood collection was performed using a 25 G insulin syringe (BD). Once all blood samples were collected, tubes are spun at 2000 G for 10 minutes using a tabletop centrifuge and plasma was aliquoted into individual Eppendorf tubes (Fisher Scientific) and stored at −80° C. for subsequent EPO quantification. EPO levels in plasma were determined using EPO MSD kit (Meso Scale Diagnostics).

[1] = TNS (pKa) assay, apparent LNP pKa; format: physicochemical; conditions: for pKa (TNS): Example 5 LNP lipid:DOPE:Plant Cholesterol:DMPE-PEG2k 35:16:46.5:2.5, FLUC/EPO 1:1 mRNA, N:P 6:1
Experimental: (protocol adapted from: A Novel Amino Lipid Series for mRNA Delivery: Improved Endosomal Escape and Sustained Pharmacology and Safety in Non-human Primates, Sabnis, Staci et al., Molecular Therapy, Volume 26, Issue 6, 1509-1519) 20 buffers (10 mM sodium phosphate, 10 mM sodium borate, 10 mM sodium citrate, and 150 mM sodium chloride, in Distilled Water) of unique pH values ranging from 3.0-12.0 were prepared using 1M sodium hydroxide and 1M hydrochloric acid. 3.25 uL of LNPs (0.04 mg/mL mRNA, in PBS) were incubated with 2 μL of TNS reagent (0.3 mM, in DMSO) and 90 μL of buffer for each pH value (described above) in a 96-well black-walled plate. Each pH condition was performed in triplicate wells. The TNS fluorescence was measured using a Biotek Cytation Plate reader at excitation/emission wavelengths of 321/445 nm. The fluorescence values were then plotted and fit using a 4-parameter sigmoid curve. From the fit, the pH value yielding the half-maximal fluorescence was calculated and reported as the apparent LNP pKa value.
For pKa measurement, a […] assay was conducted according to those described in Sabnis et al., Molecular Therapy, 26(6):1509-19), which is incorporated herein by reference in its entirety. Briefly, 20 buffers (10 mM sodium phosphate, 10 mM sodium borate, 10 mM sodium citrate, and 150 mM sodium chloride, in distilled Water) of unique pH values ranging from 3.0-12.0 were prepared using 1M sodium hydroxide and 1M hydrochloric acid. 3.25 μL of a LNP composition (0.04 mg/mL mRNA, in PBS) was incubated with 2 μL of TNS reagent (0.3 mM, in DMSO) and 90 μL of buffer for each pH value (described above) in a 96-well black-walled plate. Each pH condition was performed in triplicate wells. The TNS fluorescence was measured using a Biotek Cytation Plate reader at excitation/emission wavelengths of 321/445 nm. The fluorescence values were then plotted and fit using a 4-parameter sigmoid curve. From the fit, the pH value yielding the half-maximal fluorescence was calculated and reported as the apparent LNP pKa value.

[2] = mRNA encapsulation efficiency, Quant-iT RiboGreen RNA Assay; format: physicochemical; conditions: LNP ionizable lipid:DSPC:Plant Chol.:DMPE-PEG2k 50:10:38.5:1.5
[3] = Example 5 LNP (DOPE 35:16:46.5:2.5), 5 μg FLUC + 5 μg EPO
[4] = LNP lipid:DSPC:Plant Chol.:DMPE-PEG2k 50:10:38.5:1.5, 5 ug Fluc+5 ug EPO mRNA
[5] = LNP lipid:DOPE:Plant Chol.:DMPE-PEG2k 35:16:46.5:2.5 (Table 1), 5 ug Fluc+5 ug EPO mRNA
[6] = LNP ionizable lipid:DOPE:Plant Chol.:DMPE-PEG2k 35:16:46.5:2.5 (Table 1)
[7] = LNP ionizable lipid:DSPC:Plant Chol.:DMPE-PEG2k 50:10:38.5:1.5

| Compound | hEPO (Balb/c mice; [3]) | hEPO (Balb/c mice; [4]) | pKa (TNS) [1] | % EE [2] [%] | hEPO (Balb/c mice; [5]) | pKa [1, 6] | pKa [1, 7] |
| --- | --- | --- | --- | --- | --- | --- | --- |
| CCCCCCCCCCCOC(=O)CCCCCN(CCCCCCCC(=O)OC(CCCCCCCC)CCCCCCCC)CCOC(=O)OCCN(CCCCCCCC(=O)OC(CCCCCCCC)CCCCCCCC)CCCCCC(=O)OCCCCCCCCCCC [Compound 2218, 1-octylnonyl 8-[2-[2-[[8-(1-octylnonoxy)-8-oxo-octyl]-(6-oxo-6-undecoxy-hexyl)amino]ethoxycarbonyloxy]ethyl-(6-oxo-6-undecoxy-hexyl)amino]octanoate] | 9.6E+01 | 8.40E+01 | 4.34 | 86.5 |  |  |  |
| CCCCCCCCCCCOC(=O)CCCCCN(CCCCCCCC(=O)OC(CCCCCCCC)CCCCCCCC)CCNC(=O)CC(=O)NCCN(CCCCCCCC(=O)OC(CCCCCCCC)CCCCCCCC)CCCCCC(=O)OCCCCCCCCCCC [Compound 2220, 1-octylnonyl 8-[2-[[3-[2-[[8-(1-octylnonoxy)-8-oxo-octyl]-(6-oxo-6-undecoxy-hexyl)amino]ethylamino]-3-oxo-propanoyl]amino]ethyl-(6-oxo-6-undecoxy-hexyl)amino]octanoate] | 7.1E+05 | 6.99E+05 | 6.02 | 91 |  |  |  |
| CCCCCCCCCCCOC(=O)CCCCCN(CCCCCCCC(=O)OC(CCCCCCCC)CCCCCCCC)CCNC(=O)NCCN(CCCCCCCC(=O)OC(CCCCCCCC)CCCCCCCC)CCCCCC(=O)OCCCCCCCCCCC [Compound 2246, 1-octylnonyl8-[2-[2-[[8-(1-octylnonoxy)-8-oxo-octyl]-(6-oxo-6-undecoxy-hexyl)amino]ethylcarbamoylamino]ethyl-(6-oxo-6-undecoxy-hexyl)amino]octanoate] | 3.6E+06 |  | 6.63 |  |  |  |  |
| CCCCCCCCCCCOC(=O)CCCCCN(CCCCCCCC(=O)OC(CCCCCCCC)CCCCCCCC)CCNC(=O)/C=C/C(=O)NCCN(CCCCCCCC(=O)OC(CCCCCCCC)CCCCCCCC)CCCCCC(=O)OCCCCCCCCCCC [Compound 2252, 1-octylnonyl 8-[2-[[(E)-4-[2-[[8-(1-octylnonoxy)-8-oxo-octyl]-(6-oxo-6-undecoxy-hexyl)amino]ethylamino]-4-oxo-but-2enoyl]amino]ethyl-(6-oxo-6-undecoxy-hexyl)amino]octanoate] | 5.6E+05 | 2.03E+04 | 6.06 | 70.4 | 5.62E+05 | 6.06 | 5.49 |
| C=C(CN(CCCCCCCC(=O)OC(CCCCCCCC)CCCCCCCC)CCCCCC(=O)OCCCCCCCCCCC)CN(CCCCCCCC(=O)OC(CCCCCCCC)CCCCCCCC)CCCCCC(=O)OCCCCCCCCCCC [Compound 2253, 1-octylnonyl 8-[2-[[[8-(1-octylnonoxy)-8-oxo-octyl]-(6-oxo-6-undecoxy-hexyl)amino]methyl]allyl-(6-oxo-6-undecoxy-hexyl)amino]octanoate] | 8.9E+01 | 8.89E+01 | 3.66 | 27.3 | 8.89E+01 | 3.66 | 3.48 |
| CCCCCCCCCC(=O)OCCCCCCCN(CCCCCCCC(=O)OC(CCCCCCCC)CCCCCCCC)CCNC(=O)CCC(=O)NCCN(CCCCCCCOC(=O)CCCCCCCCC)CCCCCCCC(=O)OC(CCCCCCCC)CCCCCCCC [Compound 2272, 7-[2-[[4-[2-[7-decanoyloxyheptyl-[8-(1-octylnonoxy)-8-oxo-octyl]amino]ethylamino]-4-oxo-butanoyl]amino]ethyl-[8-(1-octylnonoxy)-8-oxo-octyl]amino]heptyl decanoate] | 1.8E+06 |  | 6.48 |  |  |  |  |
| CCCCCCCCCCCOC(=O)CCCCCN(CCCCCCCC(=O)OC(CCCCCCCC)CCCCCCCC)CCCNC(=O)CN(CC(=O)NCCCN(CCCCCCCC(=O)OC(CCCCCCCC)CCCCCCCC)CCCCCC(=O)OCCCCCCCCCCC)C(=O)CCN1CCCC1 [Compound 2353, 1-octylnonyl8-[3-[[2-[[2-[3-[[8-(1-octylnonoxy)-8-oxo-octyl]-(6-oxo-6-undecoxy-hexyl)amino]propylamino]-2-oxo-ethyl]-(3-pyrrolidin-1-ylpropanoyl)amino]acetyl]amino]propyl-(6-oxo-6-undecoxy-hexyl)amino]octanoate] | 9.7E+03 |  | 7.01 |  |  |  |  |
| CCCCCCCCCCCC(=O)OCCCCCN(CCCCCCCC(=O)OC(CCCCCCCC)CCCCCCCC)CCNC(=O)CCC(=O)NCCN(CCCCCCCC(=O)OC(CCCCCCCC)CCCCCCCC)CCCCCOC(=O)CCCCCCCCCCC [Compound 2354, 5-[2-[[4-[2-[5-dodecanoyloxypentyl-[8-(1-octylnonoxy)-8-oxo-octyl]amino]ethylamino]-4-oxo-butanoyl]amino]ethyl-[8-(1-octylnonoxy)-8-oxo-octyl]amino] pentyl dodecanoate] | 1.4E+06 |  | 6.47 |  |  |  |  |
| CCCCCCCCCCC(CC)OC(=O)CCCCCN(CCCCCCCC(=O)OC(CCCCCCCC)CCCCCCCC)CCNC(=O)CCC(=O)NCCN(CCCCCCCC(=O)OC(CCCCCCCC)CCCCCCCC)CCCCCC(=O)OC(CC)CCCCCCCCCC (stereo not shown) [Compound 2356, 1-octylnonyl 8-[[6-(1-ethylundecoxy)-6-oxo-hexyl]-[2-[[4-[2-[[6-(1-ethylundecoxy)-6-oxo-hexyl]-[8-(1-octylnonoxy)-8-oxo-octyl]amino]ethylamino]-4-oxo-butanoyl]amino]ethyl]amino]octanoate] | 1.3E+08 |  | 6.01 |  |  |  |  |
| CCCCCCCCCCCOC(=O)CCCCCN(CCCCCCCC(=O)OCCCC(CCCCC)CCCCC)CCN1CCN(CCN(CCCCCCCC(=O)OCCCC(CCCCC)CCCCC)CCCCCC(=O)OCCCCCCCCCCC)CC1 [Compound 2397, 4-pentylnonyl 8-[2-[4-[2-[[8-oxo-8-(4-pentylnonoxy)octyl]-(6-oxo-6-undecoxy-hexyl)amino]ethyl]piperazin-1-yl]ethyl-(6-oxo-6-undecoxy-hexyl)amino]octanoate] | 1.5E+06 |  | 6.44 |  |  |  |  |
